Source: PubChem BioAssay (NCI)
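Results reflect a 48-hour exposure of cells in 96-well plates to compound at five concentrations. GI50 marks 50% less growth. TGI: total growth inhibition.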

Legend:
Experiment in all cases: DTP human tumour cell line panel, 48 h
[1] = tested on: A549 NSCLC
[2] = tested on: HCT-116 colon
[3] = tested on: UO-31 renal
[4] = tested on: HCT-15 colon
[5] = tested on: KM12 colon
[6] = tested on: MDA-MB-231 breast
[7] = tested on: SR leukemia
[8] = tested on: HS 578T breast
[9] = tested on: MCF7 breast
[10] = tested on: NCI-H226 lung
[11] = tested on: NCI/ADR-RES ovarian
[12] = tested on: SNB-19 CNS
[13] = tested on: K-562 leukemia
[14] = tested on: MALME-3M melanoma
[15] = tested on: OVCAR-4 ovarian
[16] = tested on: UACC-257 melanoma
[17] = tested on: CCRF-CEM leukemia
[18] = tested on: RPMI-8226 leukemia
[19] = tested on: SF-295 CNS
[20] = tested on: MOLT-4 leukemia
[21] = tested on: HOP-62 NSCLC
[22] = tested on: 786-0 renal
[23] = tested on: HCC-2998 colon
[24] = tested on: OVCAR-5 ovarian
[25] = tested on: A498 renal
[26] = tested on: OVCAR-8 ovarian
[27] = tested on: U251 CNS
[28] = tested on: COLO 205 colon
[29] = tested on: NCI-H522 lung
[30] = tested on: M14 melanoma
[31] = tested on: SK-OV-3 ovarian
[32] = tested on: SW-620 colon
[33] = tested on: LOX IMVI melanoma
[34] = tested on: IGROV1 ovarian
[35] = tested on: SF-539 CNS
[36] = tested on: BT-549 breast
[37] = tested on: UACC-62 melanoma
[38] = tested on: PC-3 prostate
[39] = tested on: SN12C renal
[40] = tested on: SK-MEL-5 melanoma
[41] = tested on: MDA-MB-435
[42] = tested on: SF-268 CNS
[43] = tested on: SK-MEL-2 melanoma
[44] = tested on: SK-MEL-28 melanoma
[45] = tested on: T-47D breast
[46] = tested on: TK-10 renal
[47] = tested on: SNB-75 CNS
[48] = tested on: NCI-H460 lung
[49] = tested on: ACHN renal
[50] = tested on: HT29 colon
[51] = tested on: RXF 393 renal
[52] = tested on: OVCAR-3 ovarian
[53] = tested on: DU-145 prostate
[54] = tested on: NCI-H23 lung
[55] = tested on: HL-60(TB) leukemia
[56] = tested on: CAKI-1 renal
[57] = tested on: EKVX NSCLC
[58] = tested on: HOP-92 NSCLC

COC(=O)C(Cc1ccccc1)C(=O)C(CC(=O)OC(C)(C)C)NC(=O)OC(C)(C)C (stereo not drawn)
GI50 [1]: 26.2 µg/mL
GI50 [2]: 26.5 µg/mL
TGI [2]: 87.9 µg/mL
GI50 [3]: 24.7 µg/mL
TGI [3]: 66.8 µg/mL
GI50 [4]: 28.2 µg/mL
GI50 [5]: 59.7 µg/mL

CC1=C(C)C(=O)OC([C@](C)(O)[C@]2(O)CC[C@@]3(O)[C@@H]4C[C@H]5O[C@]56CC=CC(=O)[C@]6(C)[C@H]4CC[C@]23COC(=O)c2ccc(C)o2)C1 (stereo partly drawn)
TGI [6]: > 24.4 µM
TGI [7]: > 100 µM
TGI [1]: > 32.4 µM
TGI [8]: > 51.6 µM
GI50 [9]: > 100 µM
TGI [9]: > 100 µM
TGI [10]: > 33 µM
TGI [11]: > 79.7 µM
TGI [12]: > 24.7 µM
TGI [13]: > 43.5 µM
TGI [14]: > 31.8 µM
TGI [15]: > 34.1 µM
TGI [16]: > 20.9 µM
TGI [17]: > 35.4 µM
TGI [18]: > 33.2 µM
TGI [19]: > 32.6 µM
TGI [20]: > 22.4 µM
TGI [21]: > 21 µM

CC1(C)C2CCC1(CC(=O)O)C(Cl)C2 (stereo not drawn)
TGI [6]: > 100 µM
TGI [22]: > 100 µM
TGI [23]: > 100 µM
TGI [1]: > 100 µM
TGI [24]: > 100 µM
TGI [25]: > 100 µM
TGI [26]: > 100 µM
TGI [27]: > 100 µM
TGI [28]: > 100 µM
TGI [29]: > 100 µM
TGI [2]: > 100 µM
TGI [8]: > 100 µM
TGI [9]: > 100 µM
TGI [30]: > 100 µM
TGI [31]: > 100 µM
TGI [3]: > 100 µM
TGI [10]: > 100 µM
TGI [11]: > 100 µM
TGI [12]: > 100 µM
TGI [13]: > 100 µM
TGI [32]: > 100 µM
TGI [14]: > 100 µM
TGI [15]: > 100 µM
TGI [33]: > 100 µM
TGI [34]: > 100 µM
TGI [35]: > 100 µM
TGI [16]: > 100 µM
TGI [36]: > 100 µM
TGI [37]: > 100 µM
TGI [38]: > 100 µM
TGI [39]: > 100 µM
TGI [40]: > 100 µM
TGI [17]: > 100 µM
TGI [41]: > 100 µM
TGI [18]: > 100 µM
TGI [42]: > 100 µM
TGI [43]: > 100 µM
TGI [19]: > 100 µM
TGI [44]: > 100 µM
TGI [4]: > 100 µM
TGI [45]: > 100 µM
TGI [46]: > 100 µM
TGI [47]: > 100 µM
TGI [48]: > 100 µM
TGI [49]: > 100 µM
TGI [50]: > 100 µM
TGI [51]: > 100 µM
TGI [52]: > 100 µM
TGI [5]: > 100 µM
TGI [53]: > 100 µM
TGI [20]: > 100 µM
TGI [21]: > 100 µM
TGI [54]: > 100 µM
TGI [55]: > 100 µM
TGI [56]: > 100 µM
TGI [57]: > 100 µM

COc1cc(C2C(C#N)=C(N)Oc3cc(O)ccc32)cc(OC)c1OC (stereo not drawn)
GI50 [6]: 1.85 µM
TGI [6]: > 100 µM
GI50 [7]: 0.335 µM
TGI [7]: > 100 µM
GI50 [58]: 0.301 µM
TGI [58]: 97.5 µM
GI50 [22]: 0.668 µM
TGI [22]: > 100 µM
GI50 [23]: 0.964 µM
TGI [23]: > 54.8 µM
GI50 [1]: 0.625 µM
TGI [1]: > 100 µM
GI50 [24]: 2.36 µM
TGI [24]: > 100 µM
GI50 [25]: 0.218 µM
TGI [25]: 1.45 µM
GI50 [26]: 0.856 µM
TGI [26]: > 100 µM
GI50 [27]: 0.439 µM
TGI [27]: > 100 µM
GI50 [28]: 0.583 µM
TGI [28]: 4.1 µM
GI50 [29]: 0.281 µM
TGI [29]: 3.85 µM
GI50 [2]: 0.428 µM
TGI [2]: > 100 µM
GI50 [8]: 0.4 µM
TGI [8]: > 100 µM
GI50 [9]: 0.334 µM
TGI [9]: > 100 µM
GI50 [30]: 0.409 µM
TGI [30]: > 100 µM
GI50 [31]: 0.481 µM
TGI [31]: > 43.9 µM
GI50 [3]: 3.84 µM
TGI [3]: > 100 µM
GI50 [10]: 6.98 µM
TGI [10]: > 100 µM
GI50 [11]: 1.72 µM
TGI [11]: > 100 µM
TGI [12]: > 100 µM
GI50 [13]: 0.435 µM
TGI [13]: > 100 µM
GI50 [32]: 0.361 µM
TGI [32]: > 100 µM
GI50 [14]: 0.644 µM
TGI [14]: > 100 µM
GI50 [15]: 2.14 µM
TGI [15]: > 100 µM
GI50 [33]: 0.546 µM
TGI [33]: > 100 µM
GI50 [34]: 2.19 µM
TGI [34]: > 100 µM
GI50 [35]: 0.333 µM
GI50 [16]: 0.401 µM
TGI [16]: > 100 µM
GI50 [36]: 0.419 µM
TGI [36]: 33.3 µM
GI50 [37]: 0.407 µM
TGI [37]: > 100 µM
GI50 [38]: 0.619 µM
TGI [38]: > 100 µM
GI50 [39]: 0.827 µM
TGI [39]: > 100 µM
GI50 [40]: 0.37 µM
TGI [40]: 26.7 µM
GI50 [17]: 0.37 µM
TGI [17]: > 100 µM
GI50 [41]: 0.147 µM
TGI [41]: 0.643 µM
GI50 [18]: 0.65 µM
TGI [18]: > 89.6 µM
GI50 [42]: 14.5 µM
TGI [42]: > 100 µM
GI50 [43]: 0.496 µM
TGI [43]: > 100 µM
GI50 [19]: 0.374 µM
TGI [19]: > 100 µM
GI50 [44]: 0.86 µM
TGI [44]: > 100 µM
GI50 [4]: 0.539 µM
TGI [4]: > 100 µM
GI50 [46]: 8.61 µM
TGI [46]: > 100 µM
GI50 [47]: 0.271 µM
TGI [47]: > 100 µM
GI50 [48]: 0.382 µM
TGI [48]: > 75.2 µM
GI50 [49]: 0.882 µM
TGI [49]: > 100 µM
GI50 [50]: 0.39 µM
TGI [50]: 11.8 µM
GI50 [51]: 0.362 µM
TGI [51]: 1.99 µM
GI50 [52]: 0.317 µM
TGI [52]: 0.851 µM
GI50 [5]: 0.454 µM
TGI [5]: 63.3 µM
GI50 [53]: 0.659 µM
TGI [53]: > 100 µM
GI50 [20]: 0.584 µM
TGI [20]: > 100 µM
GI50 [21]: 0.746 µM
TGI [21]: > 100 µM
GI50 [54]: 0.62 µM
TGI [54]: > 100 µM
GI50 [55]: 0.311 µM
TGI [55]: > 100 µM
GI50 [56]: 0.97 µM
TGI [56]: > 100 µM
GI50 [57]: 6.49 µM
TGI [57]: > 100 µM
